Results taken from ChEMBL document CHEMBL1130681, “Synthesis of 5-substituted quinazolinone derivatives and their inhibitory activity in vitro” (Bioorg Med Chem Lett, 1998).

Columns and labels:
Type in all cases: functional, cell-based
LY3.7.2C TK-/- cell line = assay: Concentration required to inhibit LY3.7.2C TK-/-(mouse lymphoma, thymidine kinase deficient) cell lines
CCRF-CEM = assay: Concentration required to inhibit CCRF-CEM (human leukemia) cell lines
L1210 = assay: Concentration required to inhibit L1210 (mouse lymphocytic leukemia) cell lines
HT-29 = assay: Concentration required to inhibit HT-29 (human colon adenocarcinoma) cell lines

| Compound | IC50 (LY3.7.2C TK-/- cell line) [µM] | IC50 (CCRF-CEM) [µM] | IC50 (L1210) [µM] | IC50 (HT-29) [µM] |
| --- | --- | --- | --- | --- |
| Cc1ccc2nc(N)nc(O)c2c1Sc1ccc(C(=O)N[C@H](C(=O)O)c2ccccc2)cc1 | 0.8 | 5.4 | 2 | > 20 |
| Cc1ccc2nc(N)[nH]c(=O)c2c1Sc1ccncc1 [NOLATREXED] | 1.5 | 0.8 | 1.1 | 3.7 |
| COC(=O)[C@@H](NC(=O)c1ccc(Sc2c(C)ccc3nc(N)nc(O)c23)cc1)c1cccc(O)c1 | 0.3 | 1.5 | 2 | 8.4 |
| COC(=O)[C@@H](NC(=O)c1ccc(Sc2c(C)ccc3nc(N)nc(O)c23)cc1)c1ccccc1 | 0.5 | 0.2 | 0.4 | 0.6 |
| Cc1ccc2nc(N)nc(O)c2c1Sc1ccc(C(=O)N[C@H](C(=O)O)c2cccc(O)c2)cc1 | 0.6 | 3.4 | 0.7 | 17 |
| COC(=O)c1cccc([C@H](NC(=O)c2ccc(Sc3c(C)ccc4nc(N)nc(O)c34)cc2)C(=O)OC)c1 | 0.7 | 0.2 | 0.7 | 0.6 |
| Cc1ccc2nc(N)nc(O)c2c1Sc1ccc(C(=O)N[C@H](C(=O)O)c2cccc(C(=O)O)c2)cc1 | 0.7 | 0.05 | 0.5 | 1.2 |
